Several values for one entry are separate records, joined by “and”; a condition that tells them apart may be missing. Equal entries are not always repeated.
Assays:
[1] = Absorption and photoluminescence spectroscopy in solution; type: physicochemical
Text: The close proximity of the anthracene units in the mechanically interlocked cyclophanes was expected to give rise to remarkable optical properties distinct from those of the free cyclophanes. We explored the absorption and fluorescence properties of all compounds at high dilution (4×10^−7 M) to avoid reabsorption processes^40 and aggregation effects.^17 All of the optical parameters are summarized in Tables 1 and 2. Initially, we explored the influence of the pyridine/pyridinium units on the optical properties of both ^2,6AnBox^4+ and ^9,10AnBox^4+ cyclophanes. The presence of two pyridinium units within the linker dramatically affect the optical properties of the anthracene moiety. Although ^2,6AnBPY (FIG. 5C) and ^9,10AnBPY display^41 characteristic vibronic peaks associated with the anthracene moiety at 290 and 400 nm, ^2,6AnDB^2+ and ^9,10AnDB^2+ display a shift of the band at 290 to 330 nm (FIG. 5A) and the emergence of a new featureless broad band at 450 nm associated with CT from the anthracene moiety to the pyridinium unit. It is noteworthy that phenylene-bridged bipyridyl linkers (ExBIPY) display^35 a single absorption peak at 325 nm in MeCN, while the anthracene moiety leads to the emergence of some push-pull D-A character.
All reagents were purchased from commercial suppliers (Aldrich or Fisher) and used without further purification. Anthracene derivatives, 9,10-bis(4-pyridyl)anthracene (^9.^10AnBPY) and 2,6-bis(4-pyridyl)anthracene (^2,6AnBPY) were synthesized following^1,2 reports in the literature. All reactions and manipulations were carried out under a dry N2 atmosphere using standard Schlenk. Thin-layer chromatography (TLC) was performed on silica gel 60 F254 TLC plates (Merck). Column chromatography was carried out using CombiFlash® Automation Systems (Teledyne ISCO) employing both normal phase (RediSep Rf Gold® Normal-Phase Silica) and reverse phase (RediSep Rf Gold® Reversed-phase C18). […] All the spectra were baseline-corrected with a MeCN blank sample. The photoluminescence spectra of all samples were obtained with a Fluorolog-3 spectrafluorometer (Horiba Jobin Yvon) in a 2-mm quartz cuvette with 3-nm slit width and a front-phase geometry. The time-correlated single photon counting setup is described elsewhere.^3 Nuclear magnetic resonance (NMR) spectra were recorded on a Bruker Avance III 500 and 600 MHz spectrometers, with working frequencies of 500 and 600 MHz (′H NMR) and 125 MHz (^13C NMR), respectively. Chemical shifts are reported in ppm relative to the signals corresponding to the residual non-deuterated solvents (CD3CN: δ1−1=1.94 ppm and δC=1.32 ppm). High-resolution mass spectra (HRMS) were measured on an Agilent 6210 Time of Flight (TOF) LC-MS, using an ESI source, coupled with Agilent 1100 HPLC stack, using direct infusion (0.6 mL min ^−1). The binding constants were determined using this link: website http://supramolecular.org.^4

[2] = test system: MIA PaCa-2 prostate cancer cells; assay: Live-cell confocal microscopy imaging; type: cell-based; details: 20×10^−6 M, 6 hours treatment, excitation 458 nm
Description: (§1) Cells were grown in standard DMEM (supplemented with 10% Fetal Bovine Serum and 1% Penicillin-Streptomycin, supplier=Corning). Cells were seeded into imaging coverglass chamber 40 hours prior to treatment. Compounds were resuspended in deionized H2O then diluted to the final concentration in media. Cells were treated with compounds for 6 hours prior to imaging.
(§2) All imaging was done on a Leica SP5 laser scanning confocal with LAS AF software in the Biological Imaging Facility at Northwestern University (Evanston, IL). A single excitation wavelength (458 nm) was used at a power of 5 uW. For the emission collection, two Leica spectral Hybrid (HyD) detectors were used; one was set to collect a wavelength range of 500-575 nm (with a gain of 200%) and the second was set to collect a wavelength range of 580-635 nm (with a gain of 103%). Images were processed with FIJI/ImageJ (NIH) and settings were kept consistent throughout the series of images.

MIA PaCa-2 cancer cells = assay: Live-cell confocal microscopy imaging; type: cell-based; details: concentrations lower than 10×10^−6 M
Description: as §1, §2

**Q.** With `c1cc2ccc1C[n+]1ccc(cc1)-c1ccc3cc4cc(ccc4cc3c1)-c1cc[n+](cc1)Cc1ccc(cc1)C[n+]1ccc(cc1)-c1ccc3cc4cc(ccc4cc3c1)-c1cc[n+](cc1)C2` [^2,6AnBox^4+] as the compound, how does the “Φ (PL quantum yield)” value ([1]; 4 × 10^−7 M, MeCN) read?
**A.** Its value is 3.6%.

**Q.** And the λabs ([1]; 4 × 10^−7 M, MeCN)?
**A.** Its λabs is 458 nm.

**Q.** What about the λem ([1]; 4 × 10^−7 M, MeCN) of the same compound?
**A.** The λem was 548 nm and 562 nm.

**Q.** What about the “τ (emission lifetime)” value ([1]; 4 × 10^−7 M, MeCN, 405 nm excitation) of the same compound?
**A.** The value was 3 ns.

**Q.** What about the λem ([1]; 4 × 10^−7 M, MeCN, listed as cyclophane) of the same compound?
**A.** Its λem is 562 nm.

**Q.** And the “Stokes shifts (δ)” value ([1]; DMF, 4 × 10^−7 M)?
**A.** Its value is 3153 cm⁻¹.

**Q.** And the λabs ([1]; DMF, 4 × 10^−7 M)?
**A.** Its λabs is 472 nm.

**Q.** And the λem ([1]; DMF, 4 × 10^−7 M)?
**A.** Its λem is 549 nm.

**Q.** And the λexc ([1]; DMF, 4 × 10^−7 M)?
**A.** Its λexc is 468 nm.

**Q.** And the “Stokes shifts (δ)” value ([1]; EtOH, 4 × 10^−7 M)?
**A.** Its value is 3574 cm⁻¹.

**Q.** And the λabs ([1]; EtOH, 4 × 10^−7 M)?
**A.** Its λabs is 468 nm.

**Q.** What about the λem ([1]; EtOH, 4 × 10^−7 M) of the same compound?
**A.** Its λem is 562 nm.

**Q.** What about the λexc ([1]; EtOH, 4 × 10^−7 M) of the same compound?
**A.** Its λexc is 468 nm.

**Q.** And the “Stokes shifts (δ)” value ([1]; H2O, 4 × 10^−7 M)?
**A.** The value was 3284 cm⁻¹.

**Q.** And the λabs ([1]; H2O, 4 × 10^−7 M)?
**A.** Its λabs is 458 nm.

**Q.** What about the λem ([1]; H2O, 4 × 10^−7 M) of the same compound?
**A.** Its λem is 553 nm.

**Q.** And the λexc ([1]; H2O, 4 × 10^−7 M)?
**A.** The λexc was 468 nm.

**Q.** What about the “Stokes shifts (δ)” value ([1]; Me2SO, 4 × 10^−7 M) of the same compound?
**A.** The value was 3915 cm⁻¹.

**Q.** And the λabs ([1]; Me2SO, 4 × 10^−7 M)?
**A.** The λabs was 460 nm.

**Q.** What about the λem ([1]; Me2SO, 4 × 10^−7 M) of the same compound?
**A.** Its λem is 570 nm.

**Q.** What about the λexc ([1]; Me2SO, 4 × 10^−7 M) of the same compound?
**A.** Its λexc is 466 nm.

**Q.** And the “charge transfer (CT) absorption band” value ([1]; MeCN)?
**A.** The value was 458 nm.

**Q.** And the “Stokes shifts (δ)” value ([1]; MeCN, 4 × 10^−7 M (Table 2))?
**A.** Its value is 3946 cm⁻¹.

**Q.** What about the λabs ([1]; MeCN, 4 × 10^−7 M (Table 2)) of the same compound?
**A.** Its λabs is 458 nm.

**Q.** And the λem ([1]; MeCN, 4 × 10^−7 M (Table 2))?
**A.** Its λem is 562 nm.

**Q.** What about the λexc ([1]; MeCN, 4 × 10^−7 M (Table 2)) of the same compound?
**A.** The λexc was 460 nm.

**Q.** And the “charge transfer (CT) absorption band” value ([1]; MeCN, listed as cyclophane)?
**A.** The value was 455 nm.

**Q.** What about the “Stokes shifts (δ)” value ([1]; MeOH, 4 × 10^−7 M) of the same compound?
**A.** The value was 3854 cm⁻¹.

**Q.** What about the λabs ([1]; MeOH, 4 × 10^−7 M) of the same compound?
**A.** Its λabs is 460 nm.

**Q.** What about the λem ([1]; MeOH, 4 × 10^−7 M) of the same compound?
**A.** The λem was 568 nm.

**Q.** And the λexc ([1]; MeOH, 4 × 10^−7 M)?
**A.** The λexc was 466 nm.

**Q.** What about the “concentration dependence of excimer/exciplex emission” value ([1]; from high concentration to high dilution (10^−8 M)) of the same compound?
**A.** Its value is “absence of excimer emission at high concentration”.

**Q.** And the “emission in the green channel (500-575 nm) in live cells” value [2]?
**A.** The value was “an emission in the green channel”.

**Q.** What about the “emission in the red channel (580-635 nm) in live cells” value [2] of the same compound?
**A.** Its value is “very weak emission in the red channel”.

**Q.** And the “emission detected in live cells” value (MIA PaCa-2 cancer cells)?
**A.** The value was “No emissions”.

— patent US11977028B2, “Mechanical-bond-induced exciplex fluorescence” (Northwestern University, priority 2020, dated 2024)
